# According to patent US10258659B2, “Water soluble defructosylated pea extract, and use thereof as a prebiotic agent” (OLYGOSE, priority 2009, dated 2019):
# Marks after values point to notes of the source that are not given here.
# Conditions: human, in vivo
substance,measurement,value
β-galacto-oligosaccharides [β-GOS],Abdominal noises F (frequency of the symptoms),1.8 ^b
same,Abdominal noises I (intensity of the symptoms),1.6 ^ab
same,Abdominal pain F (frequency of the symptoms),1.6 ^ab
same,Abdominal pain I (intensity of the symptoms),1.5 ^ab
same,Bloating F (frequency of the symptoms),1.6 ^ab
same,Bloating I (intensity of the symptoms),1.7 ^b
same,Cumulative grade,21.3 ^b
same,Flatulence F (frequency of the symptoms),2.9 ^b
same,Flatulence I (intensity of the symptoms),2.5 ^b
same,Nausea F (frequency of the symptoms),1.2 ^a
same,Nausea I (intensity of the symptoms),1.1 ^a
same,Need to defecate F (frequency of the symptoms),2.1 ^a
same,Need to defecate I (intensity of the symptoms),1.7 ^a
